Data published in patent US20050222076A1, “Composition for cell proliferation” (OTSUKA PHARMACEUTICAL CO., LTD., priority 2002, published 2005).

System: human keratinocyte
Test: In vitro cultured human keratinocyte cell proliferation promoting effect (WST-1)
Type: cell-based
Details: primary-cultured human keratinocyte, cultured two days; AMP 0-1 w/v % combined with UMP 0.000001-0.1 w/v %; versus comparative sample without uridine monophosphate disodium set as 1; FIG. 1
Protocol: Primary-cultured human keratinocyte (manufactured by Kurabo Industries, Ltd.) was cultured in a 10-cm petri dish, and the cultured cells were collected in the subconfluent state and then stored in a frozen state. The following experiments were conducted using those cryopreserved cells.
1. The cryopreserved cells were dissolved in HuMediaKG2 liquid culture media (manufactured by Kurabo Industries, Ltd.), the cell concentration was adjusted to […]. 50 μl of thus obtained cells-containing solution was poured into each well of a test plate to adjust the cell concentration to 2500 cells/50 μl/well.
2. […]
3. […] The test samples contained solutions at various concentrations prepared by blending uridine monophosphate disodium to adenosine monophosphate disodium solutions in which the concentration of adenosine monophosphate contained in the 300 μl of the test sample was adjusted to 0, 0.0001, 0.001, 0.01, 0.1, and 1 W/V %, so that the concentration of uridine monophosphate disodium was adjusted to 0, 0.000001 (1E-06), 0.00001 (1E-05), 0.0001, 0.001, 0.01 and 0.1 w/v % as calculated based on the concentration of the uridine monophosphate.
4. Two days after culture initiation, the proliferation of human keratinocyte cells was measured using a WST-1 reagent (manufactured by TaKaRa) based on the rise in absorbance. […]

| Structure (SMILES) | cell proliferation promoting effect of adenosine monophosphate disodium when blended with uridine monophosphate disodium (relative ratio of number of cells, ratio of cont.) |
| --- | --- |
| O=c1ccn([C@@H]2O[C@H](COP(=O)([O-])[O-])[C@@H](O)[C@H]2O)c(=O)[nH]1.[Na+].[Na+] [uridine monophosphate disodium] | potentiated and promoted |
| Nc1ncnc2c1ncn2[C@@H]1O[C@H](COP(=O)([O-])[O-])[C@@H](O)[C@H]1O.[Na+].[Na+] [adenosine monophosphate disodium] | potentiated and promoted |
